Assay results as given in ChEMBL document CHEMBL1201862, “PubChem BioAssay data set” (2004).
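Method: 48-hour compound exposure of cells in 96-well plates, five concentrations, linear interpolation of endpoints. GI50 marks 50% less growth.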 Activity calls are given as the source filed them. No stated cut-off is given here; in the data, active = GI50 up to about 1.1 µM and inactive = higher.

Key:
Assay in all cases: NCI tumour cell line growth inhibition, 48 h
[1] = tested on: 786-0
[2] = tested on: A549
[3] = tested on: ACHN
[4] = tested on: BT-549
[5] = tested on: CAKI-1
[6] = tested on: CCRF-CEM
[7] = tested on: COLO 205
[8] = tested on: DU-145
[9] = tested on: EKVX
[10] = tested on: HCC 2998
[11] = tested on: HCT-116
[12] = tested on: HCT-15
[13] = tested on: HL-60
[14] = tested on: HOP-62
[15] = tested on: HOP-92
[16] = tested on: HT-29
[17] = tested on: Hs-578T
[18] = tested on: IGROV-1
[19] = tested on: K562
[20] = tested on: KM12
[21] = tested on: LOX IMVI
[22] = tested on: M14
[23] = tested on: MCF7
[24] = tested on: MDA-MB-231
[25] = tested on: MDA-MB-435
[26] = tested on: MDA-N
[27] = tested on: MOLT-4
[28] = tested on: Malme-3M
[29] = tested on: NCI-H226
[30] = tested on: NCI-H460
[31] = tested on: NCI-H522
[32] = tested on: NCI/ADR-RES
[33] = tested on: OVCAR-4
[34] = tested on: OVCAR-5
[35] = tested on: OVCAR-8
[36] = tested on: PC-3
[37] = tested on: RPMI-8226
[38] = tested on: RXF 393
[39] = tested on: SF-268
[40] = tested on: SF-295
[41] = tested on: SF-539
[42] = tested on: SK-MEL-28
[43] = tested on: SK-MEL-2
[44] = tested on: SK-MEL-5
[45] = tested on: SK-OV-3
[46] = tested on: SN12C
[47] = tested on: SNB-19
[48] = tested on: SNB-75
[49] = tested on: SR
[50] = tested on: SW-620
[51] = tested on: T47D
[52] = tested on: TK-10
[53] = tested on: U-251
[54] = tested on: UACC-257
[55] = tested on: UACC-62
[56] = tested on: UO-31
[57] = tested on: OVCAR-3
[58] = tested on: A498
[59] = tested on: NCI-H23

COc1ccc(/C=C(\C#N)c2nc3ccccc3c(=O)[nH]2)cc1
GI50 [1]: 13.9 µM (inactive)
GI50 [2]: 45.9 µM (inactive)
GI50 [3]: 17.1 µM (inactive)
GI50 [4]: 15.5 µM (inactive)
GI50 [5]: 27.8 µM (inactive)
GI50 [6]: > 100 µM (inactive)
GI50 [7]: 73.6 µM (inactive)
GI50 [8]: 23.1 µM (inactive)
GI50 [9]: 59.6 µM (inactive)
GI50 [10]: 49.5 µM (inactive)
GI50 [11]: 5.22 µM (inactive)
GI50 [12]: 54.5 µM
GI50 [13]: > 100 µM (inactive)
GI50 [14]: 10.5 µM (inactive)
GI50 [15]: 12.1 µM (inactive)
GI50 [16]: > 100 µM (inactive)
GI50 [17]: 15.1 µM (inactive)
GI50 [18]: 30.3 µM (inactive)
GI50 [19]: > 100 µM (inactive)
GI50 [20]: 51.5 µM (inactive)
GI50 [21]: 43.4 µM (inactive)
GI50 [22]: 30 µM (inactive)
GI50 [23]: 34.4 µM (inactive)
GI50 [24]: 4.84 µM (inactive)
GI50 [25]: > 100 µM (inactive)
GI50 [26]: > 100 µM (inactive)
GI50 [27]: > 100 µM (inactive)
GI50 [28]: > 100 µM (inactive)
GI50 [29]: 27 µM (inactive)
GI50 [30]: 16.6 µM (inactive)
GI50 [31]: 10.6 µM (inactive)
GI50 [32]: 20.3 µM (inactive)
GI50 [33]: 20.3 µM (inactive)
GI50 [34]: > 100 µM (inactive)
GI50 [35]: 10.6 µM (inactive)
GI50 [36]: 38.7 µM (inactive)
GI50 [37]: > 100 µM (inactive)
GI50 [38]: 15.5 µM (inactive)
GI50 [39]: 13.7 µM (inactive)
GI50 [40]: 20.5 µM (inactive)
GI50 [41]: 12.6 µM (inactive)
GI50 [42]: > 100 µM (inactive)
GI50 [43]: 27.3 µM (inactive)
GI50 [44]: 19.5 µM (inactive)
GI50 [45]: 11.3 µM (inactive)
GI50 [46]: 33.6 µM (inactive)
GI50 [47]: 12.9 µM (inactive)
GI50 [48]: 23.9 µM (inactive)
GI50 [49]: 39.4 µM (inactive)
GI50 [50]: 50.4 µM (inactive)
GI50 [51]: 20.6 µM (inactive)
GI50 [52]: 23.3 µM (inactive)
GI50 [53]: 9.42 µM (inactive)
GI50 [54]: 68.7 µM (inactive)
GI50 [55]: 18.4 µM (inactive)
GI50 [56]: 26.5 µM (inactive)

Cc1ccc2c(c1C)CC1(Cc3ccc(C)c(C)c3C1=O)C2=O (configuration not stated)
GI50 [1]: 39.4 µM (inactive)
GI50 [2]: 35.7 µM (inactive)
GI50 [3]: 46 µM (inactive)
GI50 [4]: > 100 µM (inactive)
GI50 [5]: 44.2 µM (inactive)
GI50 [6]: > 100 µM (inactive)
GI50 [7]: > 100 µM (inactive)
GI50 [8]: > 100 µM (inactive)
GI50 [9]: 44.2 µM (inactive)
GI50 [10]: > 100 µM (inactive)
GI50 [11]: > 100 µM (inactive)
GI50 [12]: > 100 µM
GI50 [13]: 94.6 µM (inactive)
GI50 [15]: 34 µM (inactive)
GI50 [17]: 91.8 µM (inactive)
GI50 [18]: 21.7 µM (inactive)
GI50 [19]: > 100 µM (inactive)
GI50 [20]: > 100 µM (inactive)
GI50 [21]: > 100 µM (inactive)
GI50 [22]: > 100 µM (inactive)
GI50 [23]: 66.8 µM (inactive)
GI50 [24]: 30.8 µM (inactive)
GI50 [25]: > 100 µM (inactive)
GI50 [26]: > 100 µM (inactive)
GI50 [27]: > 100 µM (inactive)
GI50 [28]: > 100 µM (inactive)
GI50 [29]: 52.1 µM (inactive)
GI50 [30]: > 100 µM (inactive)
GI50 [31]: > 100 µM (inactive)
GI50 [32]: > 100 µM (inactive)
GI50 [57]: > 100 µM (inactive)
GI50 [33]: 33.7 µM (inactive)
GI50 [34]: > 100 µM (inactive)
GI50 [35]: 61.5 µM (inactive)
GI50 [36]: > 100 µM (inactive)
GI50 [37]: > 100 µM (inactive)
GI50 [38]: 17.1 µM (inactive)
GI50 [39]: > 100 µM (inactive)
GI50 [40]: 30.3 µM (inactive)
GI50 [41]: 28.6 µM (inactive)
GI50 [42]: > 100 µM (inactive)
GI50 [43]: > 100 µM (inactive)
GI50 [44]: 76.9 µM (inactive)
GI50 [46]: > 100 µM (inactive)
GI50 [47]: 59.6 µM (inactive)
GI50 [48]: 67.6 µM (inactive)
GI50 [49]: > 100 µM (inactive)
GI50 [50]: > 100 µM (inactive)
GI50 [51]: > 100 µM (inactive)
GI50 [52]: 29.7 µM (inactive)
GI50 [53]: 44 µM (inactive)
GI50 [54]: > 100 µM (inactive)
GI50 [55]: > 100 µM (inactive)
GI50 [56]: > 100 µM (inactive)

CCC(=O)NCC1CCCN2CCCCC12 (configuration not stated)
GI50 [1]: > 100 µM (inactive)
GI50 [58]: > 100 µM (inactive)
GI50 [2]: > 100 µM (inactive)
GI50 [3]: > 100 µM (inactive)
GI50 [4]: > 100 µM (inactive)
GI50 [5]: > 100 µM (inactive)
GI50 [6]: > 100 µM (inactive)
GI50 [7]: > 100 µM (inactive)
GI50 [8]: > 100 µM (inactive)
GI50 [9]: > 100 µM (inactive)
GI50 [10]: > 100 µM (inactive)
GI50 [11]: > 100 µM (inactive)
GI50 [12]: > 100 µM
GI50 [13]: > 100 µM (inactive)
GI50 [15]: > 100 µM (inactive)
GI50 [16]: > 100 µM (inactive)
GI50 [17]: > 100 µM (inactive)
GI50 [19]: > 100 µM (inactive)
GI50 [20]: > 100 µM (inactive)
GI50 [21]: > 100 µM (inactive)
GI50 [23]: > 100 µM (inactive)
GI50 [24]: > 100 µM (inactive)
GI50 [25]: > 100 µM (inactive)
GI50 [26]: > 100 µM (inactive)
GI50 [27]: > 100 µM (inactive)
GI50 [28]: 44.7 µM (inactive)
GI50 [29]: > 100 µM (inactive)
GI50 [59]: > 100 µM (inactive)
GI50 [30]: > 100 µM (inactive)
GI50 [32]: > 100 µM (inactive)
GI50 [33]: > 100 µM (inactive)
GI50 [35]: > 100 µM (inactive)
GI50 [36]: > 100 µM (inactive)
GI50 [37]: > 100 µM (inactive)
GI50 [38]: > 100 µM (inactive)
GI50 [39]: > 100 µM (inactive)
GI50 [40]: > 100 µM (inactive)
GI50 [41]: > 100 µM (inactive)
GI50 [42]: > 100 µM (inactive)
GI50 [43]: > 100 µM (inactive)
GI50 [44]: > 100 µM (inactive)
GI50 [45]: > 100 µM (inactive)
GI50 [46]: > 100 µM (inactive)
GI50 [47]: > 100 µM (inactive)
GI50 [48]: > 100 µM (inactive)
GI50 [50]: > 100 µM (inactive)
GI50 [51]: > 100 µM (inactive)
GI50 [52]: > 100 µM (inactive)
GI50 [53]: > 100 µM (inactive)
GI50 [54]: > 100 µM (inactive)
GI50 [55]: > 100 µM (inactive)
GI50 [56]: > 100 µM (inactive)
